Test results reported in patent US5358951A, “Angiotensin II receptor blocking 2, 3, 6 substituted quinazolinones” (American Cyanamid Company, priority 1993, dated 1994).

System: vasopressor response of angiotensin II
Assay: AII Challenge: antagonism of angiotensin II vasopressor response;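 on Response Average Change: post-dose Angiotensin II-evoked rise in systolic blood pressure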
Assay type: in vivo
Settings: for inhibition in vivo at 3 mg/kg / inhibition in vivo at 5 mg/kg: Rattus norvegicus
Summary of the method: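 Conscious male SHR (16-20 weeks) with aortic and caval cannulae received angiotensin II at 0.05 and 0.1 ug/kg i.v. before and 30-300 min after compound dosing (i.v., i.p. or oral). Blockade is expressed as % of each rat's predose rise in systolic pressure.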

[1] = 1 mg/kg P.O., AII 0.05 mcg/kg IV, 60 min post dose
[2] = 1 mg/kg P.O., AII 0.05 mcg/kg IV, 90 min post dose
[3] = 1 mg/kg P.O., AII 0.05 mcg/kg IV, 120 min post dose
[4] = 1 mg/kg P.O., AII 0.05 mcg/kg IV, 180 min post dose
[5] = 1 mg/kg P.O., AII 0.05 mcg/kg IV, 240 min post dose
[6] = 1 mg/kg P.O., AII 0.1 mcg/kg IV, 60 min post dose
[7] = 1 mg/kg P.O., AII 0.1 mcg/kg IV, 90 min post dose
[8] = 1 mg/kg P.O., AII 0.1 mcg/kg IV, 120 min post dose
[9] = 1 mg/kg P.O., AII 0.1 mcg/kg IV, 180 min post dose
[10] = 1 mg/kg P.O., AII 0.1 mcg/kg IV, 240 min post dose
[11] = 5 mg/kg P.O., AII 0.05 mcg/kg IV, 60 min post dose
[12] = 5 mg/kg P.O., AII 0.1 mcg/kg IV, 60 min post dose

CCCCc1nc2ccc([C@@]3(C)C[C@@H]4CCCN4O3)cc2c(=O)n1Cc1ccc(-c2ccccc2-c2nnn[nH]2)cc1 (relative stereo) [Example 58, Cis-(+/-)-2-Butyl-6-(hexahydro-2-methylpyrrolo[1,2-1,2-b]isoxazol-2-yl) -3-[[2'-(1H-tetrazol-5-yl) [1,1'-biphenyl]-4-yl]methyl]-4(3H)-quinazolinone]
% Inhibition [1]: 62%
Response Average Change [1]: 16 mmHg
% Inhibition [2]: 68%
Response Average Change [2]: 13.5 mmHg
% Inhibition [3]: 67%
Response Average Change [3]: 14 mmHg
% Inhibition [4]: 82%
Response Average Change [4]: 7.5 mmHg
% Inhibition [5]: 82%
Response Average Change [5]: 7.5 mmHg
% Inhibition [6]: 37%
Response Average Change [6]: 30 mmHg
% Inhibition [7]: 44%
Response Average Change [7]: 26.5 mmHg
% Inhibition [8]: 53%
Response Average Change [8]: 22.5 mmHg
% Inhibition [9]: 56%
Response Average Change [9]: 21 mmHg
% Inhibition [10]: 68%
Response Average Change [10]: 15 mmHg
Response Average Change (3 mg/kg I.V., AII 0.05 mcg/kg IV, 30 min post dose): 0 mmHg
Response Average Change (3 mg/kg I.V., AII 0.05 mcg/kg IV, 60 min post dose): 5 mmHg
Response Average Change (3 mg/kg I.V., AII 0.05 mcg/kg IV, 90 min post dose): 2.5 mmHg
Response Average Change (3 mg/kg I.V., AII 0.05 mcg/kg IV, 120 min post dose): 5 mmHg
Response Average Change (3 mg/kg I.V., AII 0.05 mcg/kg IV, 180 min post dose): 6.5 mmHg
Response Average Change (3 mg/kg I.V., AII 0.05 mcg/kg IV, 240 min post dose): 7.5 mmHg
Response Average Change (3 mg/kg I.V., AII 0.1 mcg/kg IV, 30 min post dose): 10 mmHg
Response Average Change (3 mg/kg I.V., AII 0.1 mcg/kg IV, 60 min post dose): 4 mmHg
Response Average Change (3 mg/kg I.V., AII 0.1 mcg/kg IV, 90 min post dose): 2.5 mmHg
Response Average Change (3 mg/kg I.V., AII 0.1 mcg/kg IV, 120 min post dose): 10 mmHg
Response Average Change (3 mg/kg I.V., AII 0.1 mcg/kg IV, 180 min post dose): 6.5 mmHg
Response Average Change (3 mg/kg I.V., AII 0.1 mcg/kg IV, 240 min post dose): 4 mmHg
% Inhibition [11]: 94%
Response Average Change [11]: 2.5 mmHg
Response Average Change (5 mg/kg P.O., AII 0.05 mcg/kg IV, 120 min post dose): 5 mmHg
Response Average Change (5 mg/kg P.O., AII 0.05 mcg/kg IV, 300 min post dose): 1 mmHg
% Inhibition [12]: 100%
Response Average Change [12]: 0 mmHg
inhibition in vivo at 3 mg/kg (iv, 0.5 h, 3 mg/kg I.V., AII 0.05 mcg/kg IV, 30 min post dose): 100%
inhibition in vivo at 3 mg/kg (iv, 0.5 h, 3 mg/kg I.V., AII 0.1 mcg/kg IV, 30 min post dose): 78%
inhibition in vivo at 3 mg/kg (iv, 1 h, 3 mg/kg I.V., AII 0.1 mcg/kg IV, 60 min post dose): 91%
inhibition in vivo at 3 mg/kg (iv, 2 h, 3 mg/kg I.V., AII 0.1 mcg/kg IV, 120 min post dose): 78%
inhibition in vivo at 3 mg/kg (iv, 3 h, 3 mg/kg I.V., AII 0.05 mcg/kg IV, 180 min post dose): 83%
inhibition in vivo at 3 mg/kg (iv, 3 h, 3 mg/kg I.V., AII 0.1 mcg/kg IV, 180 min post dose): 86%
inhibition in vivo at 3 mg/kg (iv, 4 h, 3 mg/kg I.V., AII 0.05 mcg/kg IV, 240 min post dose): 81%
inhibition in vivo at 3 mg/kg (iv, 4 h, 3 mg/kg I.V., AII 0.1 mcg/kg IV, 240 min post dose): 91%
inhibition in vivo at 3 mg/kg (iv, […], 3 mg/kg I.V., AII 0.05 mcg/kg IV, 90 min post dose): 94%
inhibition in vivo at 3 mg/kg (iv, […], 3 mg/kg I.V., AII 0.1 mcg/kg IV, 90 min post dose): 94%
inhibition in vivo at 3 mg/kg (po, 0.5 h, 3 mg/kg P.O., AII 0.05 mcg/kg IV, 30 min post dose): 75%
inhibition in vivo at 5 mg/kg (po, 0.5 h, 5 mg/kg P.O., AII 0.05 mcg/kg IV, 30 min post dose): 90%
inhibition in vivo at 3 mg/kg (po, 1 h, 3 mg/kg P.O., AII 0.05 mcg/kg IV, 60 min post dose): 92%
inhibition in vivo at 3 mg/kg (po, 1 h, 3 mg/kg P.O., AII 0.1 mcg/kg IV, 60 min post dose): 67%
inhibition in vivo at 5 mg/kg (po, 1 h, 5 mg/kg P.O., AII 0.05 mcg/kg IV, 60 min post dose): 94%
inhibition in vivo at 5 mg/kg (po, 1 h, 5 mg/kg P.O., AII 0.1 mcg/kg IV, 60 min post dose): 100%
inhibition in vivo at 3 mg/kg (po, 2 h, 3 mg/kg P.O., AII 0.05 mcg/kg IV, 120 min post dose): 67%
inhibition in vivo at 3 mg/kg (po, 2 h, 3 mg/kg P.O., AII 0.1 mcg/kg IV, 120 min post dose): 91%
inhibition in vivo at 5 mg/kg (po, 2 h, 5 mg/kg P.O., AII 0.05 mcg/kg IV, 120 min post dose): 88%
inhibition in vivo at 3 mg/kg (po, 3 h, 3 mg/kg P.O., AII 0.05 mcg/kg IV, 180 min post dose): 75%
inhibition in vivo at 3 mg/kg (po, 3 h, 3 mg/kg P.O., AII 0.1 mcg/kg IV, 180 min post dose): 74%
inhibition in vivo at 5 mg/kg (po, 3 h, 5 mg/kg P.O., AII 0.05 mcg/kg IV, 180 min post dose): 75%
inhibition in vivo at 5 mg/kg (po, 3 h, 5 mg/kg P.O., AII 0.1 mcg/kg IV, 180 min post dose): 89%
inhibition in vivo at 5 mg/kg (po, 4 h, 5 mg/kg P.O., AII 0.05 mcg/kg IV, 240 min post dose): 93%
inhibition in vivo at 3 mg/kg (po, 5 h, 3 mg/kg P.O., AII 0.05 mcg/kg IV, 300 min post dose): 57%
inhibition in vivo at 5 mg/kg (po, 5 h, 5 mg/kg P.O., AII 0.05 mcg/kg IV, 300 min post dose): 98%
inhibition in vivo at 5 mg/kg (po, 5 h, 5 mg/kg P.O., AII 0.1 mcg/kg IV, 300 min post dose): 84%
inhibition in vivo at 3 mg/kg (po, […], 3 mg/kg P.O., AII 0.05 mcg/kg IV, 90 min post dose): 75%
inhibition in vivo at 5 mg/kg (po, […], 5 mg/kg P.O., AII 0.05 mcg/kg IV, 90 min post dose): 88%
inhibition in vivo at 5 mg/kg (po, […], 5 mg/kg P.O., AII 0.1 mcg/kg IV, 90 min post dose): 84%
